Test in all cases: NCI tumour cell line growth inhibition, 48 h
The subject of experiment [1] is HL-60(TB) leukemia.
Experiment [2] has as its system EKVX NSCLC.
The subject of experiment [3] is TK-10 renal.
Experiment [4] deals with SN12C renal.
For experiment [5], the system named is OVCAR-5 ovarian.
The test system of experiment [6] is OVCAR-3 ovarian.
In experiment [7] the test system is SNB-75 CNS.
Experiment [8] deals with UACC-257 melanoma.
The test system of experiment [9] is SK-MEL-28 melanoma.
In experiment [10] the test system is CAKI-1 renal.

Here are results for 26 compounds from PubChem BioAssay (NCI).

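Five concentrations, 48 hours, 96-well plates. At the GI50, growth is halved. TGI: total growth inhibition.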

With `NC(=NCc1ccccc1)N/N=C\c1ccnc2ccccc12`, the TGI in experiment [1] stood at 36.4 µM; in [2] it was 33.1 µM; in [3], 32.1 µM; in [4], 29.6 µM; in [5], 32.7 µM; in experiment [6], 27.2 µM. For the same compound, the results for the TGI in experiment [7], in [8] and in [9] were 21.5 µM, 8.63 µM and 25.1 µM, respectively.

As for `OCCC#Cc1ccccc1C#Cc1ccccc1`, the GI50 in experiment [2] is 11.3 µM; in [3], 11.3 µM; in [4], 12.5 µM; in experiment [5], 16.9 µM; in experiment [10], 12.6 µM; in experiment [7], 19.8 µM. For the same compound, the results for the GI50 in experiment [8] and in [9] were 22.4 µM and 21.7 µM, respectively. The TGI in [2] was 24.3 µM; in experiment [3], 23.4 µM; in experiment [4] it was 26.8 µM; in experiment [5], 50.7 µM; in [10] it was 25.2 µM; in experiment [7] it was 53.4 µM. The results for the TGI in experiment [8] and in [9] were 45.9 µM and 60.9 µM, respectively.

Consider `CC/C(=C(/CC)c1ccc(OP(=O)([O-])[O-])cc1)c1ccc(OP(=O)([O-])[O-])cc1.N.N.N.N.[Pt+4].[Pt+4]`, for which the GI50 in [1] was 0.518 µM; in experiment [2], 7.77 µM; in [3] it was 4.73 µM; in experiment [4], 3.93 µM; in experiment [5], 6.98 µM; in experiment [6], 2.49 µM. Further, the GI50 in [7] is 1.24 µM; in [8], 2.99 µM; in experiment [9], 2.07 µM. The TGI in [1] was 16.4 µM; in experiment [2] it was 41.9 µM; in [3], more than 100 µM; in experiment [4] it was 45.7 µM; in [5] it was 77.8 µM; in experiment [6], 8.89 µM. The TGI worked out at 7.4 µM in experiment [7], 10.1 µM in experiment [8] and 6.28 µM in [9].

On to `COC(=O)C12C3C=CC(O3)C1C1C=CC2O1` (centres undefined), for which the TGI in [1], in experiment [2], in experiment [3], in experiment [4], in experiment [5] and in [6] was more than 100 µM each time. The TGI in experiment [8] and in [9] was more than 100 µM in each case.

In the case of `CNS(=O)(=O)NN(C)S(=O)(=O)c1ccc(C)cc1`, the TGI in experiment [1], in experiment [2], in [3], in experiment [4], in experiment [5] and in experiment [10] was more than 100 µM in each case. Besides, the TGI in experiment [6], in [8] and in [9] was more than 100 µM in each case.

With `Cc1ccc(NC(=O)CCC(=O)C2CC(=O)CCC2=O)cc1C` (centres undefined), the TGI in experiment [1], in experiment [2], in experiment [3], in experiment [4], in experiment [5] and in experiment [10] was more than 100 µM throughout. Moreover, the TGI in experiment [6], in experiment [8] and in experiment [9] was more than 100 µM in each case.

As for `CCOC(=O)C12CN(C34CC5CC(CC(C5)C3)C4)CC(C(=O)OCC)(C1=O)C(c1ccccc1)OC2c1ccccc1` (centres undefined), the TGI in experiment [1], in experiment [2], in experiment [3], in [5], in experiment [6] and in [7] was more than 100 µM throughout. In addition, the TGI in experiment [8] and in experiment [9] was more than 100 µM in each case.

On to `C=C(CNCCc1ccc(O)cc1)[C@@H]1CC[C@]2(CO)CC[C@]3(C)[C@H](CC[C@@H]4[C@@]5(C)CCC(NCCO)C(C)(C)[C@@H]5CC[C@]43C)[C@@H]12` (some centres undefined), for which the GI50 in experiment [2] was 1.6 µM; in experiment [3], 1.7 µM; in experiment [4], 1.75 µM; in [5], 1.67 µM; in experiment [10], 1.65 µM; in [6], 1.73 µM. In addition, the values for the GI50 in experiment [7], in [8] and in [9] were 1.24 µM, 1.86 µM and 1.81 µM, respectively. Besides, the TGI in [2] is 3.41 µM; in experiment [3] it was 3.14 µM; in experiment [4] it was 3.25 µM; in experiment [5] it was 3.31 µM; in [10], 3.29 µM; in experiment [6], 3.51 µM. Moreover, the TGI came out at 2.52 µM in experiment [7], 3.27 µM in experiment [8] and 3.38 µM in [9].

Consider `CC1(C)CC[C@]2(C(=O)O)CCC3(C)C(=CCC4[C@@]5(C)CC[C@H](OC6OCC(O)C(O)C6OC6OC(CO)C(O)C(O)C6O)C(C)(C)C5CC[C@]43C)C2C1` (some centres undefined), for which the TGI in [2] is 3.85 µM; in [3], 4.42 µM; in experiment [4], 3.42 µM; in [5], 6.93 µM; in experiment [10], 3.06 µM; in experiment [6] it was 4.39 µM. The TGI in [7] was 4.6 µM; in [8], 9.21 µM; in [9], 4.39 µM.

`COc1cc(-c2[nH]ncc2CCCC(=O)Nc2ccccc2[N+](=O)[O-])ccc1O`: the TGI in [1], in experiment [2], in experiment [3], in experiment [4], in experiment [5] and in [10] was more than 100 µM throughout. Besides, the TGI in [7], in experiment [8] and in experiment [9] was more than 100 µM throughout.

As to `Oc1ccc(-c2nc(-c3ccc(F)cc3)c(-c3ccncc3)[nH]2)cc1`, the GI50 in experiment [1] is 18.1 µM; in experiment [2] it was 13.6 µM; in experiment [3], 7.89 µM; in experiment [4] it was 14.9 µM; in experiment [5], 59.3 µM; in experiment [6] it was 15 µM. In addition, the values for the GI50 in experiment [7], in experiment [8] and in [9] were 8.86 µM, 13.9 µM and 6.05 µM, respectively. In addition, the TGI in experiment [1] was 67.1 µM; in experiment [2] it was more than 100 µM; in [3], more than 100 µM; in experiment [4], more than 100 µM; in experiment [5] it was more than 100 µM; in experiment [6] it was 86.9 µM. The TGI in [7] is more than 100 µM; in [8] it was 63.1 µM; in experiment [9] it was 84.7 µM.

Take `Nc1ccc(C(=O)O)c2[nH]c3ccccc3c(=O)c12`: the TGI in experiment [1], in experiment [3], in [4], in [5], in experiment [10] and in experiment [7] was more than 100 µM throughout. Also, the TGI in experiment [8] is more than 100 µM.

In the case of `Cn1cccc1C1CC(=O)N(CCC[Se]C#N)C1=O` (centres undefined), the GI50 in experiment [1] is 2.11 µM; in [2], 1.93 µM; in experiment [3], 1.79 µM; in experiment [5], 2.49 µM; in [10], 1.92 µM; in experiment [6], 1.92 µM. The GI50 is 1.95 µM in experiment [8] and 2.24 µM in experiment [9]. The TGI amounted to 4.68 µM in [1]; 4.46 µM in experiment [2]; 4.06 µM in experiment [3]; 6.51 µM in experiment [5]; 3.57 µM in experiment [10]; 3.99 µM in experiment [6]. Also, the TGI in experiment [8] came to 4.73 µM; in experiment [9], 5.96 µM.

With `Clc1ccc(C2=NN(c3ccccc3)C3c4cc(Br)ccc4OCC23)cc1` (centres undefined), the TGI in [1], in experiment [2], in [3], in experiment [5], in experiment [6] and in experiment [7] was more than 100 µM throughout. Also, the TGI in experiment [8] and in experiment [9] was more than 100 µM throughout.

Regarding `COc1ccc(C=O)c(N(C)C(=O)C(C)(C)C)c1`, the TGI in experiment [1], in experiment [2], in [3], in experiment [4], in [6] and in experiment [7] was more than 100 µM each time. Also, the TGI in experiment [8] and in experiment [9] was more than 100 µM in each case.

For `CCN1N=CSC12C(=O)N(c1ccccc1)C(=O)N2c1ccccc1` (centres undefined), the TGI in [1], in experiment [2], in experiment [3], in experiment [4], in experiment [10] and in experiment [6] was more than 100 µM in each case. Moreover, the TGI in experiment [7], in experiment [8] and in [9] was more than 100 µM in each case.

As for `COc1ccc(C(=O)Nc2ccccc2)cc1[N+](=O)[O-]`, the TGI in [2], in experiment [3], in experiment [4], in [10], in experiment [6] and in experiment [7] was more than 100 µM in each case. Also, the TGI in [8] and in [9] was more than 100 µM in each case.

With `Nc1ncn([C@@H]2C=C(CO)C(O)C2O)c(=O)n1` (some centres undefined), the TGI in [1], in experiment [2], in experiment [3], in experiment [4], in experiment [5] and in [10] was more than 100 µM throughout. The TGI in [6], in experiment [8] and in experiment [9] was more than 100 µM each time.

Take `O=C1/C(=C/c2ccccc2Cl)COc2ccccc21`: the TGI in experiment [1] came to 58 µM; in experiment [2] it was 29.7 µM; in experiment [3], 27.1 µM; in experiment [5] it was 32.4 µM; in [6], 34.8 µM; in [7], 32.1 µM. In addition, the TGI is 34.9 µM in experiment [8] and 30.1 µM in [9].

As to `Cc1ccc(C)c(NC(=O)CCC(=O)CC(=O)C(C)(C)C)c1`, the TGI in experiment [2], in [3], in experiment [4], in experiment [5], in experiment [10] and in experiment [6] was more than 100 µM each time. Further, the TGI in experiment [7], in experiment [8] and in experiment [9] was more than 100 µM throughout.

Take `COC(=O)C1(c2ccc(OC)cc2)NC(c2ccccc2)C2C(=O)N(c3ccc(OC)cc3)C(=O)C21` (centres undefined): the TGI in experiment [1], in experiment [2], in experiment [3], in experiment [4], in experiment [5] and in [10] was more than 100 µM in each case. The TGI in [7], in experiment [8] and in experiment [9] was more than 100 µM in each case.

`COc1ccc(Br)c(CCCCC(=O)O)c1`: the TGI in [1], in experiment [2], in [3], in experiment [4], in experiment [10] and in [6] was more than 100 µM in each case. The TGI in [7], in experiment [8] and in experiment [9] was more than 100 µM throughout.

`COC1C2c3ccccc3C(C#N)(Cc3ccc4c(c32)OCO4)N1C(=O)c1ccccc1` (centres undefined): the TGI in experiment [1], in [2], in experiment [3], in experiment [4], in experiment [5] and in experiment [6] was more than 100 µM each time. The TGI in experiment [7], in experiment [8] and in experiment [9] was more than 100 µM in each case.

Turning to `COC(=O)[C@@]12C3=NO[C@]1(C(=O)OC)C(O[Si](C)(C)C(C)(C)C)C1OC(C)(C)OC1[C@@H]2[C@@H](OCc1ccccc1)CC3` (some centres undefined), the TGI was 13.9 µM in [1]; more than 100 µM in experiment [2]; more than 100 µM in experiment [3]; more than 100 µM in experiment [4]; more than 100 µM in experiment [6]; more than 100 µM in [7]. This compound displayed a TGI in experiment [9] of more than 100 µM.

With `Cc1cc2c(C)nn(Cc3ccc(Cl)cc3Cl)c2c(C#N)c1C`, the TGI in [1], in [2], in [3], in experiment [4], in [5] and in experiment [6] was more than 100 µM each time. In addition, the TGI in [7], in experiment [8] and in experiment [9] was more than 100 µM throughout.

For `Cc1ccc(S(=O)(=O)OC(C=O)C(O)C(O)COC(c2ccccc2)(c2ccccc2)c2ccccc2)cc1` (centres undefined), the TGI amounted to 34.5 µM in experiment [2]; 28.9 µM in [4]; 34.7 µM in experiment [5]; 36.6 µM in experiment [10]; 28.1 µM in experiment [6]; 29.4 µM in experiment [7]. The TGI in experiment [8] was 25.9 µM; in [9], 35.9 µM.
